Laboratory results as given in US11274332B2, “Methods of administering 3,4-diaminopyridine” (SERB SA, priority 2011, dated 2022).

Test: Food-effect crossover study, adverse events after single 20 mg amifampridine phosphate in healthy subjects (Examples 10, 11)
Assay type: in vivo
Method: This was a randomized, open-label, 2-treatment, 2-period crossover study with 44 completed subjects to assess the safety, tolerability, and the effect of food on the relative bioavailability of a single dose of amifampridine phosphate.
Safety was evaluated for all subjects who take at least one dose of 3,4-DAP. Safety was evaluated by recording the incidence of adverse events (AEs), physical examination, vital signs, concomitant medications, clinical laboratory assessments, and 12-lead electrocardiogram (ECG).
Analysis for the following safety parameters was carried out on the Safety Population: AEs which included all AEs, AEs by severity, drug-related AEs, deaths, SAEs, AEs leading to study discontinuation, and most frequent AEs, standard clinical laboratory tests, vital signs, ECG measurements, routine physical examinations, and prior and concomitant medications. The cut-off for frequency of AEs reported was determined based on the data. No formal statistical testing was performed for the safety analyses; only descriptive statistics were provided. Appropriate descriptive statistics for the safety data were determined using SAS Version 9.2.
AEs were coded according to the Medical Dictionary for Regulatory Activities (MedDRA; Version 13.0). […] The occurrence of AEs was assessed continuously from the time the subject signed the VID and consent. The reporting period for non-serious AEs was from the first dose to the final study visit. The investigator determined the severity of each event and the relationship of an AE to the IP and recorded it on the source documents and AE CRF. The nature, time of onset, duration, severity, and relationship to study drug was documented, including documentation of investigator assessment and review. All events were assessed to determine if the AE was serious.
The Investigator determined the severity of each event and the event was recorded on the source documents and AE CRF. A coding of “mild” meant there was no limitation of usual activities, “moderate” meant there was some limitation of usual activities, “severe” meant there was an inability to carry out usual activities.
The reporting period for AEs that met the criteria of an SAE began from the time of signing the VID and consent form through follow-up or early termination. […] Clinical Laboratory Assessments

Nc1ccncc1N [3,4-DAP, 3,4-diaminopyridine]
paraesthesias among the 93 drug-related AEs: % of events (Overall): 54% | paraesthesias among the 93 drug-related AEs: events (Overall): 50 | Abdominal Pain, drug-related AE: events (Overall N=47): 3 | Dizziness, drug-related AE: events (Overall N=47): 7 | Dysgeusia, drug-related AE: events (Overall N=47): 3 | Fatigue, drug-related AE: events (Overall N=47): 4 | Gastrointestinal Disorders Total, drug-related AE: % of subjects (Overall N=47): 19% | Gastrointestinal Disorders Total, drug-related AE: events (Overall N=47): 12 | Gastrointestinal Disorders Total, drug-related AE: subjects (Overall N=47): 9 | Headache, drug-related AE: events (Overall N=47): 5 | Hypoaesthesia Oral, drug-related AE: events (Overall N=47): 6 | Nausea, drug-related AE: events (Overall N=47): 4 | Nervous System Disorders Total, drug-related AE: % of subjects (Overall N=47): 57% | Nervous System Disorders Total, drug-related AE: events (Overall N=47): 74 | Nervous System Disorders Total, drug-related AE: subjects (Overall N=47): 27 | Paraesthesia Oral, drug-related AE: events (Overall N=47): 30 | Paraesthesia, drug-related AE: events (Overall N=47): 20
